{"source": "patent US10392347B2", "about": "“2,4-dihydroxy-nicotinamides as APJ agonists” (BRISTOL-MYERS SQUIBB COMPANY, priority 2015, dated 2019)", "data": [{"target": "T1, human APJ receptor (Homo sapiens, UniProt P35414)", "T1 construct": "expressed in transfected cells", "T1 sequence (P35414 1-380)": "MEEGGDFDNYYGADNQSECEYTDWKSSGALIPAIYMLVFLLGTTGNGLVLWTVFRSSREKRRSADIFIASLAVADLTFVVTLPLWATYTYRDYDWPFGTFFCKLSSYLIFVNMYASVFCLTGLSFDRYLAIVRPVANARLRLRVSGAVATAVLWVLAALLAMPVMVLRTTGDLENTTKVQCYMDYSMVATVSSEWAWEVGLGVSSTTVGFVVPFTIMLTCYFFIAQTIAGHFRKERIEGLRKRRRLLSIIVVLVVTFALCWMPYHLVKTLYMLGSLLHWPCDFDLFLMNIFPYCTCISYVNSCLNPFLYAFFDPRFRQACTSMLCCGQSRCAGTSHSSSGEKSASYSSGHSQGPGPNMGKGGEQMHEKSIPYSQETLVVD", "test": "Intracellular cAMP accumulation assay (APJ hcAMP, HTRF)", "format": "cell-based", "details": "Table 3; HEK293 cells stably expressing human APJ, forskolin-stimulated cAMP; read-out: APJ cAMP EC50", "procedure,_shortened": "(§1)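 Inhibition of forskolin (2 μM)-stimulated cAMP, with […], was measured after 30 min compound exposure at room temperature in stably transfected HEK293 cells. HTRF ratios were converted to cAMP via standard curve, and EC50 values came from variable-slope sigmoidal concentration-response fitting.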", "units": {"EC50": "nM"}, "values": [{"smiles": "CCCCc1nc(O)c(C(=O)N2CCC(c3ccc(F)cn3)C2)c(O)c1-c1c(OC)cccc1OC", "note": "(stereo not shown) [Example 79, 6-butyl-5-(2,6-dimethoxyphenyl)-3-[3-(5-fluoropyridin-2-yl)pyrrolidine-1-carbonyl]pyridine-2,4-diol]", "EC50": "0.01 to 10"}, {"smiles": "CCCCc1nc(O)c(C(=O)N2CCC(c3ccc(F)cn3)C2)c(O)c1-c1c(OC)cccc1OC", "note": "(stereo not shown) [Example 80, 6-butyl-5-(2,6-dimethoxyphenyl)-3-[3-(5-fluoropyridin-2-yl)pyrrolidine-1-carbonyl]pyridine-2,4-diol]", "EC50": "0.01 to 10"}, {"smiles": "CCCCc1nc(O)c(C(=O)N2CCC(c3ncccc3F)C2)c(O)c1-c1c(OC)cccc1OC", "note": "(stereo not shown) [Example 81, 6-butyl-5-(2,6-dimethoxyphenyl)-3-[3-(3-fluoropyridin-2-yl)pyrrolidine-1-carbonyl]pyridine-2,4-diol]", "EC50": "0.01 to 10"}, {"smiles": "CCCCc1nc(O)c(C(=O)N2CCC(c3ncc(F)cc3F)C2)c(O)c1-c1c(OC)cccc1OC", "note": "(stereo not shown) [Example 82, 6-butyl-3-[3-(3,5-difluoropyridin-2-yl)pyrrolidine-1-carbonyl]-5-(2,6-dimethoxyphenyl)pyridine-2,4-diol]", "EC50": "0.01 to 10"}, {"smiles": "CCCCc1nc(O)c(C(=O)N2CCC(c3ncc(F)cc3F)C2)c(O)c1-c1c(OC)cccc1OC", "note": "(stereo not shown) [Example 83, 6-butyl-3-[3-(3,5-difluoropyridin-2-yl)pyrrolidine-1-carbonyl]-5-(2,6-dimethoxyphenyl)pyridine-2,4-diol]", "EC50": "0.01 to 10"}, {"smiles": "CCOCc1nc(O)c(C(=O)N2CCC(c3ncc(F)cc3F)C2)c(O)c1-c1c(OC)cccc1OC", "note": "(stereo not shown) [Example 84, 3-[3-(3,5-difluoropyridin-2-yl)pyrrolidine-1-carbonyl]-5-(2,6-dimethoxyphenyl)-6-(ethoxymethyl)pyridine-2,4-diol]", "EC50": "0.01 to 10"}, {"smiles": "CCOCc1nc(O)c(C(=O)N2CCC(c3ncc(F)cc3F)C2)c(O)c1-c1c(OC)cccc1OC", "note": "(stereo not shown) [Example 85, 3-[3-(3,5-difluoropyridin-2-yl)pyrrolidine-1-carbonyl]-5-(2,6-dimethoxyphenyl)-6-(ethoxymethyl)pyridine-2,4-diol]", "EC50": "0.01 to 10"}, {"smiles": "COc1cccc(OC)c1-c1c(-c2ccc(F)cc2)nc(O)c(C(=O)N2CCC(c3ccccc3F)C2)c1O", "note": "(stereo not shown) [Example 86, (5-(2,6-dimethoxyphenyl)-6-(4-fluorophenyl)-2,4-dihydroxypyridin-3-yl)(3-(2-fluorophenyl)pyrrolidin-1-yl)methanone]", "EC50": "0.01 to 10"}, {"smiles": "COc1cccc(OC)c1-c1c(-c2ccc(F)cc2)nc(O)c(C(=O)N2CCC(c3ncc(F)cc3F)C2)c1O", "note": "(stereo not shown) [Example 87, (3-(3,5-difluoropyridin-2-yl)pyrrolidin-1-yl)(5-(2,6-dimethoxyphenyl)-6-(4-fluorophenyl)-2,4-dihydroxypyridin-3-yl)methanone]", "EC50": "0.01 to 10"}]}, {"target": "T1, human APJ receptor", "test": "Intracellular cAMP accumulation assay (APJ hcAMP, HTRF)", "format": "cell-based", "details": "Table 4; HEK293 cells stably expressing human APJ, forskolin-stimulated cAMP; read-out: Human cAMP EC50", "procedure,_shortened": "as §1", "units": {"EC50": "nM"}, "values": [{"smiles": "COCCc1nc(O)c(C(=O)N2CCN(Cc3cccc(F)c3)CC2)c(O)c1-c1c(OC)cccc1OC", "note": "[Example 88, 5-(2,6-dimethoxyphenyl)-3-{4-[(3-fluorophenyl)methyl]piperazine-1-carbonyl}-6-(2-methoxyethyl)pyridine-2,4-diol]", "EC50": "100 to 300"}, {"smiles": "CCOCc1nc(O)c(C(=O)N2CCN(Cc3ccccc3F)CC2)c(O)c1-c1c(OC)cccc1OC", "note": "[Example 89, 5-(2,6-dimethoxyphenyl)-6-(ethoxymethyl)-3-{4-[(2-fluorophenyl)methyl]piperazine-1-carbonyl}pyridine-2,4-diol]", "EC50": "0.01 to 10"}, {"smiles": "CCOCc1nc(O)c(C(=O)N2CCN(Cc3cccc(F)c3)CC2)c(O)c1-c1c(OC)cccc1OC", "note": "[Example 90, 5-(2,6-dimethoxyphenyl)-6-(ethoxymethyl)-3-{4-[(3-fluorophenyl)methyl]piperazine-1-carbonyl}pyridine-2,4-diol]", "EC50": "10 to 100"}, {"smiles": "CCOCc1nc(O)c(C(=O)N2CCN(Cc3cccc(F)c3)CC2)c(O)c1-c1ccccc1OC", "note": "[Example 91, 6-(ethoxymethyl)-3-{4-[(3-fluorophenyl)methyl]piperazine-1-carbonyl}-5-(2-methoxyphenyl)pyridine-2,4-diol]", "EC50": "10 to 100"}, {"smiles": "CCCCc1nc(O)c(C(=O)N2CCC(Oc3ccccc3)CC2)c(O)c1-c1c(OC)cccc1OC", "note": "[Example 92, 6-butyl-5-(2,6-dimethoxyphenyl)-3-(4-phenoxypiperidine-1-carbonyl)pyridine-2,4-diol]", "EC50": "0.01 to 10"}, {"smiles": "CCCCc1nc(O)c(C(=O)N2CCN(Cc3ccc(Cl)cc3Cl)CC2)c(O)c1-c1c(OC)cccc1OC", "note": "[Example 93, 6-butyl-3-{4-[(2,4-dichlorophenyl)methyl]piperazine-1-carbonyl}-5-(2,6-dimethoxyphenyl)pyridine-2,4-diol]", "EC50": "0.01 to 10"}, {"smiles": "CCCCc1nc(O)c(C(=O)N2CCN(Cc3cccc(Cl)c3Cl)CC2)c(O)c1-c1c(OC)cccc1OC", "note": "[Example 94, 6-butyl-3-{4-[(2,3-dichlorophenyl)methyl]piperazine-1-carbonyl}-5-(2,6-dimethoxyphenyl)pyridine-2,4-diol]", "EC50": "0.01 to 10"}, {"smiles": "CCCCc1nc(O)c(C(=O)N(C)CCNC(=O)c2ccccc2)c(O)c1-c1c(OC)cccc1OC", "note": "[Example 95, N-(2-{1-[6-butyl-5-(2,6-dimethoxyphenyl)-2,4-dihydroxypyridin-3-yl]-N-methylformamido}ethyl)benzamide]", "EC50": "10 to 100"}, {"smiles": "CCCCc1nc(O)c(C(=O)N2CC[C@@H](c3ccccc3)C2)c(O)c1-c1cc(OC)ccc1OC", "note": "[Example 96, 6-butyl-5-(2,5-dimethoxyphenyl)-3-[(3S)-3-phenylpyrrolidine-1-carbonyl]pyridine-2,4-diol]", "EC50": "0.01 to 10"}, {"smiles": "CCCCc1nc(O)c(C(=O)N2CC[C@H](c3ccccc3)C2)c(O)c1-c1cc(OC)ccc1OC", "note": "[Example 97, 6-butyl-5-(2,5-dimethoxyphenyl)-3-[(3R)-3-phenylpyrrolidine-1-carbonyl]pyridine-2,4-diol]", "EC50": "0.01 to 10"}, {"smiles": "CCCCc1nc(O)c(C(=O)N2CC(NC(=O)c3ccccc3)C2)c(O)c1-c1c(OC)cccc1OC", "note": "[Example 98, N-{1-[6-butyl-5-(2,6-dimethoxyphenyl)-2,4-dihydroxypyridine-3-carbonyl]azetidin-3-yl}benzamide]", "EC50": "0.01 to 10"}, {"smiles": "CCCCc1nc(O)c(C(=O)N(C)CCOc2ccccc2)c(O)c1-c1c(OC)cccc1OC", "note": "[Example 99, 6-butyl-5-(2,6-dimethoxyphenyl)-2,4-dihydroxy-N-methyl-N-(2-phenoxyethyl)pyridine-3-carboxamide]", "EC50": "10 to 100"}, {"smiles": "CCCCc1nc(O)c(C(=O)N2CCC(Oc3ccc(Cl)cn3)CC2)c(O)c1-c1c(OC)cccc1OC", "note": "[Example 100, 6-butyl-3-{4-[(5-chloropyridin-2-yl)oxy]piperidine-1-carbonyl}-5-(2,6-dimethoxyphenyl)pyridine-2,4-diol]", "EC50": "0.01 to 10"}, {"smiles": "CCCCc1nc(O)c(C(=O)N2CCN(Cc3ccccn3)CC2)c(O)c1-c1c(OC)cccc1OC", "note": "[Example 101, 6-butyl-5-(2,6-dimethoxyphenyl)-3-[4-(pyridin-2-ylmethyl)piperazine-1-carbonyl]pyridine-2,4-diol]", "EC50": "0.01 to 10"}, {"smiles": "CCCCc1nc(O)c(C(=O)N(C)CCNc2ncc(Cl)cc2F)c(O)c1-c1c(OC)cccc1OC", "note": "[Example 102, 6-butyl-N-{2-[(5-chloro-3-fluoropyridin-2-yl)amino]ethyl}-5-(2,6-dimethoxyphenyl)-2,4-dihydroxy-N-methylpyridine-3-carboxamide]", "EC50": "10 to 100"}, {"smiles": "CCCCc1nc(O)c(C(=O)N2CCN(Cc3cccc(Cl)c3Cl)CC2)c(O)c1-c1cc(OC)ccc1OC", "note": "[Example 103, 6-butyl-3-{4-[(2,3-dichlorophenyl)methyl]piperazine-1-carbonyl}-5-(2,5-dimethoxyphenyl)pyridine-2,4-diol]", "EC50": "0.01 to 10"}]}]}
